Literature values as cited in patent publication US20190381003A1, “PHARMACEUTICAL COMPOSITION FOR TREATMENT OF INFLAMMATORY EAR DISEASES, METHOD FOR PRODUCING SAME AND METHOD FOR TREATMENT USING SAME COMPOSITION” (LIMITED LIABILITY COMPANY "KONSORTSIUM-PIK", priority 2017, published 2019).

Key:
[1] = following oral administration

Cc1c(C(C)C)c(=O)n(-c2ccccc2)n1C [Propyphenazone, 1,5-Dimethyl-2-phenyl-4-propan-2-yl-pyrazol-3-one]
time to maximal blood level [1]: ≤ 30 min

CCCNC(C)C(=O)Nc1c(C)csc1C(=O)OC (racemic) [Articaine, (RS)-Methyl 4-methyl-3-(2-propylaminopropanoylamino)thiophene-2-carboxylate]
persistence of anaesthesia (following drug administration): 1 to 5 h
analgesic effects, potency vs. lidocaine (vs. lidocaine): 2 fold
analgesic effects, potency vs. procaine (vs. procaine): 6 fold
